Experimental data from PubChem BioAssay AID248 (DTP/NCI, 2004).
“And” between values parts separate entries of the source, which are not always exact repeats. Equal values may be shown once. Inconclusive results and toxic doses are left out. Cut-off read from the data, not from the text of the source: active = T/C of 150% or more; inactive = T/C below 125%.

Tested on: L1210 leukemia ip in BDF1 mice, survival T/C
Experiment: NCI In Vivo Anticancer Drug Screen. Data for tumor model L1210 Leukemia (intraperitoneal) in B6D2F1 (BDF1) mice
Conditions: endpoint: mean survival time, higher = longer survival
Method in brief: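 Survival endpoint. Drug-treated group vs vehicle group, expressed as T divided by C. Tumor passaged by transplantation.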

[1] = dose: 25.0 mg/kg/injection, schedule: Q01DX009 (ip), vehicle: saline with Tween-80
[2] = dose: 100.0 mg/kg/injection, schedule: Q01DX001 (ip), vehicle: saline
[3] = dose: 50.0 mg/kg/injection, schedule: Q01DX001 (ip), vehicle: saline
[4] = dose: 12.5 mg/kg/injection, schedule: Q04DX003 (ip), vehicle: saline
[5] = dose: 25.0 mg/kg/injection, schedule: Q04DX003 (ip), vehicle: saline
[6] = dose: 50.0 mg/kg/injection, schedule: Q04DX003 (ip), vehicle: saline
[7] = dose: 100.0 mg/kg/injection, schedule: Q01DX009 (ip), vehicle: saline
[8] = dose: 100.0 mg/kg/injection, schedule: Q04DX003 (ip), vehicle: saline
[9] = dose: 200.0 mg/kg/injection, schedule: Q01DX009 (ip), vehicle: saline
[10] = dose: 200.0 mg/kg/injection, schedule: Q04DX003 (ip), vehicle: saline
[11] = dose: 400.0 mg/kg/injection, schedule: Q01DX009 (ip), vehicle: saline
[12] = dose: 400.0 mg/kg/injection, schedule: Q04DX003 (ip), vehicle: saline
[13] = dose: 100.0 mg/kg/injection, schedule: Q04DX003 (ip), vehicle: Klucel (hydroxypropylcellulose) (HPC)
[14] = dose: 200.0 mg/kg/injection, schedule: Q04DX003 (ip), vehicle: Klucel (hydroxypropylcellulose) (HPC)
[15] = dose: 400.0 mg/kg/injection, schedule: Q04DX003 (ip), vehicle: Klucel (hydroxypropylcellulose) (HPC)
[16] = dose: 100.0 mg/kg/injection, schedule: Q04DX002 (ip), vehicle: saline
[17] = dose: 200.0 mg/kg/injection, schedule: Q04DX002 (ip), vehicle: saline
[18] = dose: 400.0 mg/kg/injection, schedule: Q04DX002 (ip), vehicle: saline

Measured: T/C

CCN(CC)CCCNC1=C(Cl)C(=O)c2ccccc2C1=O
inactive: [1] 95 % of control

CNNC(=O)C(O)C(C)(C)CO (stereo unspecified)
inactive: [2] 100 % of control | dose: 200.0 mg/kg/injection, schedule: Q01DX001 (ip), vehicle: saline 100 % of control | dose: 400.0 mg/kg/injection, schedule: Q01DX001 (ip), vehicle: saline 102 % of control

Cc1ccnc(N=Cc2ccccc2)c1
inactive: [3] 89 % of control | [2] 101 % of control

COc1ccc(OC(=O)Nc2ccc([N+](=O)[O-])cc2OC)cc1
inactive: dose: 100.0 mg/kg/injection, schedule: Q01DX009 (ip), vehicle: Klucel (hydroxypropylcellulose) (HPC) 96 % of control | dose: 200.0 mg/kg/injection, schedule: Q01DX009 (ip), vehicle: Klucel (hydroxypropylcellulose) (HPC) 95 % of control | dose: 400.0 mg/kg/injection, schedule: Q01DX009 (ip), vehicle: Klucel (hydroxypropylcellulose) (HPC) 101 % of control

OCC1OC(n2ccc3c2ncn2nnnc32)C(O)C1O (stereo unspecified)
inactive: dose: 12.5 mg/kg/injection, schedule: Q01DX009 (ip), vehicle: saline 91 % of control | [4] 102 % of control | dose: 25.0 mg/kg/injection, schedule: Q01DX009 (ip), vehicle: saline 102 % of control | [5] 107 % of control | [6] 105 % of control

CC1(C2CC2)NC(=O)NC1=O (stereo unspecified)
inactive: [7] 97 % of control | [8] 92 % of control | [9] 89 % of control | [10] 97 % of control | [11] 95 % of control | [12] 95 % of control

O/N=C\CC/C=N\O
inactive: [13] 105 % of control | [14] 98 % of control | [15] 100 % of control

CC(C)CCOc1ccc(C(N)=S)c2ccccc12
inactive: dose: 100.0 mg/kg/injection, schedule: Q01DX001 (ip), vehicle: Klucel (hydroxypropylcellulose) (HPC) 112 % of control | dose: 200.0 mg/kg/injection, schedule: Q01DX001 (ip), vehicle: Klucel (hydroxypropylcellulose) (HPC) 112 % of control | dose: 400.0 mg/kg/injection, schedule: Q01DX001 (ip), vehicle: Klucel (hydroxypropylcellulose) (HPC) 102 % of control

CC12CCC(Cl)(CC1)CC2=O
inactive: [16] 95 % of control | [17] 95 % of control | [18] 98 % of control

C/C=C/c1ccc(OC)cc1
inactive: [16] 104 % of control | [17] 104 % of control | [18] 97 % of control

O=C(Nc1ccccc1)C1=C(Nc2ccccc2)CSC1
inactive: [1] 109 % of control | dose: 50.0 mg/kg/injection, schedule: Q01DX009 (ip), vehicle: saline with Tween-80 100 % of control | dose: 100.0 mg/kg/injection, schedule: Q01DX009 (ip), vehicle: saline with Tween-80 94 % of control | dose: 200.0 mg/kg/injection, schedule: Q01DX009 (ip), vehicle: saline with Tween-80 98 % of control | dose: 400.0 mg/kg/injection, schedule: Q01DX009 (ip), vehicle: saline with Tween-80 89 % of control

O=C(NNc1ccc([N+](=O)[O-])cc1)c1ccccc1
inactive: [13] 94 % of control | [14] 94 % of control | [15] 100 % of control

Nc1nc(SCc2ccccc2)c2ncn(C3CCCO3)c2n1 (stereo unspecified)
inactive: dose: 25.0 mg/kg/injection, schedule: Q01DX Z (ip), vehicle: methylcellulose (MC) 101 % of control | dose: 50.0 mg/kg/injection, schedule: Q01DX Z (ip), vehicle: methylcellulose (MC) 120 % of control

O=[N+]([O-])c1ccc2c(c1)-c1ccccc1C2O (stereo unspecified)
inactive: dose: 100.0 mg/kg/injection, schedule: Q01DX005 (ip), vehicle: Klucel (hydroxypropylcellulose) (HPC) 105 % of control | dose: 100.0 mg/kg/injection, schedule: Q04DX002 (ip), vehicle: Klucel (hydroxypropylcellulose) (HPC) 107 % of control | dose: 200.0 mg/kg/injection, schedule: Q01DX005 (ip), vehicle: Klucel (hydroxypropylcellulose) (HPC) 94 % of control | dose: 200.0 mg/kg/injection, schedule: Q04DX002 (ip), vehicle: Klucel (hydroxypropylcellulose) (HPC) 93 % of control | dose: 400.0 mg/kg/injection, schedule: Q01DX005 (ip), vehicle: Klucel (hydroxypropylcellulose) (HPC) 91 % of control | dose: 400.0 mg/kg/injection, schedule: Q04DX002 (ip), vehicle: Klucel (hydroxypropylcellulose) (HPC) 104 % of control

CC(C)=CC1C(C(=O)OC2CCN(C)CC2)C1(C)C (stereo unspecified)
inactive: dose: 25.0 mg/kg/injection, schedule: Q01DX001 (ip), vehicle: saline 98 % of control | [3] 98 % of control | [2] 101 % of control and 107 % of control

CN(C)N=C1CCC(=NN(C)C)CC1
inactive: [4] 100 % of control | [5] 100 % of control | [6] 94 % of control | [8] 100 % of control | [10] 99 % of control

CC(N)(CCCN)C(=O)O (stereo unspecified)
inactive: [7] 102 % of control | [8] 104 % of control | [9] 102 % of control | [10] 102 % of control | [11] 94 % of control | [12] 101 % of control

O=C(O)c1ccc(SSc2ccc(C(=O)O)cc2)cc1
inactive: dose: 25.0 mg/kg/injection, schedule: Q01DX009 (ip), vehicle: carboxymethylcellulose (CMC) 93 % of control and 100 % of control | dose: 25.0 mg/kg/injection, schedule: Q04DX002 (ip), vehicle: carboxymethylcellulose (CMC) 96 % of control and 103 % of control | dose: 50.0 mg/kg/injection, schedule: Q01DX009 (ip), vehicle: carboxymethylcellulose (CMC) 97 % of control and 98 % of control | dose: 50.0 mg/kg/injection, schedule: Q04DX002 (ip), vehicle: carboxymethylcellulose (CMC) 94 % of control and 90 % of control | dose: 50.0 mg/kg/injection, schedule: Q04DX003 (ip), vehicle: carboxymethylcellulose (CMC) 98 % of control and 89 % of control | dose: 100.0 mg/kg/injection, schedule: Q01DX001 (ip), vehicle: carboxymethylcellulose (CMC) 93 % of control and 88 % of control | dose: 100.0 mg/kg/injection, schedule: Q01DX009 (ip), vehicle: carboxymethylcellulose (CMC) 92 % of control and 94 % of control and 100 % of control | dose: 100.0 mg/kg/injection, schedule: Q04DX003 (ip), vehicle: carboxymethylcellulose (CMC) 110 % of control and 89 % of control | dose: 200.0 mg/kg/injection, schedule: Q01DX001 (ip), vehicle: carboxymethylcellulose (CMC) 97 % of control and 100 % of control | dose: 200.0 mg/kg/injection, schedule: Q04DX002 (ip), vehicle: carboxymethylcellulose (CMC) 97 % of control | dose: 200.0 mg/kg/injection, schedule: Q04DX003 (ip), vehicle: carboxymethylcellulose (CMC) 88 % of control and 91 % of control | dose: 400.0 mg/kg/injection, schedule: Q01DX001 (ip), vehicle: carboxymethylcellulose (CMC) 110 % of control

CC1(C)OC2C(C(=O)O)OC(n3cnc4c(N)ncnc43)C2O1 (stereo unspecified)
inactive: dose: 100.0 mg/kg/injection, schedule: Q01DX005 (ip), vehicle: saline 102 % of control | dose: 200.0 mg/kg/injection, schedule: Q01DX005 (ip), vehicle: saline 104 % of control
